Assay results taken from ChEMBL document CHEMBL1275517, “Development of caspofungin resistance following prolonged therapy for invasive candidiasis secondary to Candida glabrata infection” (2008).
Converted amounts (≈) assume the structure as drawn. Numbered stars: 1 amine (or outer) side, 2 acyl side, 3 side chain; on linkers, the order of the positions; unused ones are H or OH. Bridge positions count the residues as written; N and C are the ends. Square brackets hold non-standard residues; d marks the D form. Peptide text beside a SMILES is read from it. * marks the point of attachment. hTyr(3S-OH,4S-OH,3'-OSO3H) = N[C@H](C(=O)O)[C@H](O)[C@@H](O)c1ccc(O)c(OS(=O)(=O)O)c1; pTerphenylCO(4''-OnC5H11) = CCCCCOc1ccc(-c2ccc(-c3ccc(C(=O)*)cc3)cc2)cc1; Orn(4R-OH,5R-OH) = O=C([C@H](C[C@@H](O)[C@@H](O)N[*:3])N[*:1])[*:2]; hTyr(3S-OH,4S-OH) = N[C@H](C(=O)O)[C@H](O)[C@@H](O)c1ccc(O)cc1; Pro(3S-OH,4S-Me) = C[C@H]1CN[C@H](C(=O)O)[C@H]1O; X1 = CCCCCOc1ccc(-c2cc(-c3ccc(C(=O)*)cc3)no2)cc1; Gln(3R-OH) = NC(=O)C[C@@H](O)[C@H](N)C(=O)O; Hyp = O=C(O)[C@@H]1C[C@@H](O)CN1

Experiments:
Assay type in all cases: functional
Nakaseomyces glabratus [1] = test: Antimicrobial activity against Candida glabrata isolate 7754 after 24 hrs by broth dilution method; conditions: isolate 7754, 24 h
Nakaseomyces glabratus [2] = test: Antimicrobial activity against Candida glabrata isolate 7755 expressing FKS2 F659V mutant gene after 24 hrs by broth dilution method; conditions: isolate 7755, 24 h
Nakaseomyces glabratus [3] = test: Antimicrobial activity against Candida glabrata isolate 7754 after 24 hrs by broth dilution method in presence of 50% of human serum; conditions: isolate 7754, 24 h
Nakaseomyces glabratus [4] = test: Antimicrobial activity against Candida glabrata isolate 7755 expressing FKS2 F659V mutant gene after 24 hrs by broth dilution method in presence of 50% of human serum; conditions: isolate 7755, 24 h
Nakaseomyces glabratus [5] = test: Antimicrobial activity against Candida glabrata isolate 7754 after 48 hrs by broth dilution method; conditions: isolate 7754, 48 h
Nakaseomyces glabratus [6] = test: Antimicrobial activity against Candida glabrata isolate 7755 FKS2 F659V mutant gene after 48 hrs by broth dilution method; conditions: isolate 7755, 48 h
Nakaseomyces glabratus [7] = test: Antimicrobial activity against Candida glabrata isolate 7754 after 48 hrs by broth dilution method in presence of 50% of human serum; conditions: isolate 7754, 48 h
Nakaseomyces glabratus [8] = test: Antimicrobial activity against Candida glabrata isolate 7755 FKS2 F659V mutant gene after 48 hrs by broth dilution method in presence of 50% of human serum; conditions: isolate 7755, 48 h

Compound CCCCCOc1ccc(-c2ccc(-c3ccc(C(=O)N[C@H]4C[C@@H](O)[C@@H](O)NC(=O)[C@@H]5[C@@H](O)[C@@H](C)CN5C(=O)[C@H]([C@@H](C)O)NC(=O)[C@H]([C@H](O)[C@@H](O)c5ccc(O)cc5)NC(=O)[C@@H]5C[C@@H](O)CN5C(=O)[C@H]([C@@H](C)O)NC4=O)cc3)cc2)cc1 [ANIDULAFUNGIN] ({pTerphenylCO(4''-OnC5H11)}-[Orn(4R-OH,5R-OH)]T[Hyp][hTyr(3S-OH,4S-OH)]T[Pro(3S-OH,4S-Me)]; lactam 1-C) has an MIC (Nakaseomyces glabratus [1]) of 0.125 µg/mL (≈ 0.11 µM), an MIC (Nakaseomyces glabratus [2]) of 0.5 µg/mL (≈ 0.438 µM) and an MIC (Nakaseomyces glabratus [3]) of 1 µg/mL. For the same compound, the MIC (Nakaseomyces glabratus [4]) was 4 µg/mL, the MIC (Nakaseomyces glabratus [5]) was 0.125 µg/mL (≈ 0.11 µM) and the MIC (Nakaseomyces glabratus [6]) was 1 µg/mL (≈ 0.877 µM). For the same compound, the MIC (Nakaseomyces glabratus [7]) was 2 µg/mL and the MIC (Nakaseomyces glabratus [8]) was 4 µg/mL.
CC[C@H](C)C[C@H](C)CCCCCCCCC(=O)N[C@H]1C[C@@H](O)[C@@H](NCCN)NC(=O)[C@@H]2[C@@H](O)CCN2C(=O)[C@H]([C@H](O)CCN)NC(=O)[C@H]([C@H](O)[C@@H](O)c2ccc(O)cc2)NC(=O)[C@@H]2C[C@@H](O)CN2C(=O)[C@H]([C@@H](C)O)NC1=O [CASPOFUNGIN] gave an MIC (Nakaseomyces glabratus [1]) of 0.25 µg/mL (≈ 0.229 µM), an MIC (Nakaseomyces glabratus [2]) of 2 µg/mL (≈ 1.83 µM) and an MIC (Nakaseomyces glabratus [3]) of 0.5 µg/mL. For the same compound, the MIC (Nakaseomyces glabratus [4]) was 2 µg/mL, the MIC (Nakaseomyces glabratus [5]) was 0.25 µg/mL (≈ 0.229 µM) and the MIC (Nakaseomyces glabratus [6]) was 8 µg/mL (≈ 7.32 µM). The MIC (Nakaseomyces glabratus [7]) was 0.5 µg/mL and the MIC (Nakaseomyces glabratus [8]) was 8 µg/mL.
With CCCCCOc1ccc(-c2cc(-c3ccc(C(=O)N[C@H]4C[C@@H](O)[C@@H](O)NC(=O)[C@@H]5[C@@H](O)[C@@H](C)CN5C(=O)[C@H]([C@H](O)CC(N)=O)NC(=O)[C@H]([C@H](O)[C@@H](O)c5ccc(O)c(OS(=O)(=O)O)c5)NC(=O)[C@@H]5C[C@@H](O)CN5C(=O)[C@H]([C@@H](C)O)NC4=O)cc3)no2)cc1 [MICAFUNGIN] (X1-[Orn(4R-OH,5R-OH)]T[Hyp][hTyr(3S-OH,4S-OH,3'-OSO3H)][Gln(3R-OH)][Pro(3S-OH,4S-Me)]; lactam 1-C) the MIC (Nakaseomyces glabratus [1]) was 0.125 µg/mL (≈ 0.0984 µM), the MIC (Nakaseomyces glabratus [2]) was 0.25 µg/mL (≈ 0.197 µM) and the MIC (Nakaseomyces glabratus [3]) was 1 µg/mL. It also gave an MIC (Nakaseomyces glabratus [4]) of 4 µg/mL, an MIC (Nakaseomyces glabratus [5]) of 0.125 µg/mL (≈ 0.0984 µM) and an MIC (Nakaseomyces glabratus [6]) of 0.5 µg/mL (≈ 0.394 µM). For the same compound, the MIC (Nakaseomyces glabratus [7]) was 4 µg/mL and the MIC (Nakaseomyces glabratus [8]) was 4 µg/mL.
